Data as given in US20260293937A1, “SHRIMP FEED AND METHODS OF USE THEREOF” (Organicin Scientific, Inc., priority 2023, published 2026).
Values joined by “and” are separate entries in the source; they are usually repeats but may differ in a detail not shown here. Equal values may be shown once. No end group written: not given here.

System: Vibrio parahaemolyticus (strain 13-028A/3)
Assay: AHPND immersion challenge, feed-and-survival assay in shrimp
Format: in vivo, Penaeus (Litopenaeus) vannamei
Conditions: for Group Survival: positive control 35%; for % Survival: per tank; for Survivors: per tank of 20 shrimp
Description: This Example describes the materials, methods, and results of a feed-and-survival assay in shrimp treated with a composition of the disclosure, including the bacteriocin Nisin and shrimp feed.
Specific Pathogen Free (SPF) P. vannamei at an average weight of 1 g to 2 g, were obtained from a commercial shrimp producer and reared. A total of 300 shrimp were transferred into 15 90 L glass aquaria, each aquarium stocked with 20 shrimp.
Shrimp feed diets was prepared at X, 10X, and 100X (0.84 mg/g, 8.4 mg/g, and 84 mg/g Nisin, respectively) estimated concentrations of the bacteriocin Nisin. The bacteriocin additive was combined with a 40% protein commercial shrimp premix (Rangen Inc., Buhl, Idaho), carboxymethyl cellulose at a 3% inclusion rate, and up to 40% w/v water. Exemplary components of a typical 35% protein shrimp diet were wheat flour (35%), soybean meal (20%) and fishmeal (25%). The mixture was then cold-extruded through a meat grinder to produce a 3 mm diameter size pellet strand. The resulting feed strands were dried overnight at 40° C. and broken into appropriately-sized pellets. A total of 100 g of each diet was use for this study. In all three experimental groups a minimum of 9.324 g of Nisin was used to produce the respective feed conditions.
The negative and positive control tanks were fed Rangen's commercially pelleted shrimp diet without additive.
The commercially prepared shrimp diet from juvenile Penaeus (Litopenaeus) vannameia was prepared with a bacteriocin additive at three concentrations (0.84 mg/g, 8.4 mg/g, and 84 mg/g Nisin). Experimental shrimp were orally exposed for […] Vibrio parahaemolyticus, an agent which causes Acute Hepatopancreatic Necrosis Disease (AHPND) to determine if the feed additives (provided during and after exposure) would affect survival when compared to the group that was fed an untreated diet.
All tanks were covered to reduce the risk of mortality due to shrimp jumping out. Each group of tanks was outfitted with its own equipment (e.g., nets and buckets). Each tank contained sufficient aeration and was outfitted with a pre-conditioned biological filter. Water quality tests to characterize temperature, nitrite and total ammonia were performed on tanks weekly.
Nine tanks (three per Nisin concentration) were used to house shrimp that were fed the bacteriocin-containing diet, while three tanks were used to house shrimp fed the control diet without additive. In both cases, the shrimp were fed their respective diet, followed by the AHPND challenge. The challenge was provided on 7 days at 5% of body weight per tank. Three additional tanks were used as a negative control for environmental conditions and were used to house shrimp fed the control diet and not challenged with AHPND. Additionally, the negative control tanks were be fed before the AHPND challenged tanks to reduce the risk of cross contamination.
Each tank scheduled for the AHPND challenge was subjected to an immersion challenge. Tryptic Soy Broth +2% (TSB+) sodium chloride was inoculated with a consistently virulent strain of Vibrio parahaemolyticus (strain 13-028A/3), incubated for 18 hours, and added directly into each challenge tank. The bacterial suspension was added into each tank to achieve the bacterial density measured by optical density absorbance (OD600 nm) at approximately […].
Two animals were preserved in Davidson's AFA fixative prior to the start of the study to document the SPF health status of the population by histology.
All tanks were checked twice a day for dead or moribund animals. During the study, any mortalities were removed from the tank and frozen at −20° C. Up to two moribund animals from each diet group, including the positive control tanks, were preserved in Davidson's AFA fixative and processed for routine histology to confirm an AHPND infection (up to 12 P. vannamei processed for histology during the challenge period). […]

## Nisin: Nisin (Immucell; 99% pure) in Example 1; bacteriocin Nisin in shrimp feed at 0.84, 8.4 and 84 mg/g in Example 2 (ITSISLCTPGCKTGALMGCNMKTATCHCSIHVSK; cysteine pairing not given here; also: lantibiotic, modifications not placed; UniProt P13068 24-57, looked up)
0.84 mg/g Nisin in feed
  cumulative survival vs positive control group: statistically significant difference in cumulative survival
  deaths pre-challenge: 4
0.84 mg/g Nisin in feed vs positive controls, statistically significant
  increase in relative survival of AHPND-challenged shrimp: 265%
0.84 mg/g Nisin in feed, pre-challenge deaths excluded, positive controls 35%
  survival of AHPND-challenged shrimp: 100%
8.4 mg/g Nisin in feed
  survival rate vs positive controls: significantly higher than the positive controls
84 mg/g Nisin in feed
  deaths: not a single death
  survival vs positive controls: statistically significant as compared to the positive controls
1X (0.84 mg/g Nisin in feed), day 0, per tank
  Mortalities by Day: 0
1X (0.84 mg/g Nisin in feed), day 2, per tank
  Mortalities by Day: 0
1X (0.84 mg/g Nisin in feed), day 3, per tank
  Mortalities by Day: 0
1X (0.84 mg/g Nisin in feed), day 4, per tank
  Mortalities by Day: 0
1X (0.84 mg/g Nisin in feed), day 5, per tank
  Mortalities by Day: 0
1X (0.84 mg/g Nisin in feed), day 6, per tank
  Mortalities by Day: 0
1X (0.84 mg/g Nisin in feed), day 7, per tank
  Mortalities by Day: 0
1X (0.84 mg/g Nisin in feed), day 8, per tank
  Mortalities by Day: 0
1X (0.84 mg/g Nisin in feed), day 9, per tank
  Mortalities by Day: 0
1X (0.84 mg/g Nisin in feed), day 10, per tank
  Mortalities by Day: 0
1X (0.84 mg/g Nisin in feed), day 11, per tank
  Mortalities by Day: 0
1X (0.84 mg/g Nisin in feed), day 12, per tank
  Mortalities by Day: 0
1X (0.84 mg/g Nisin in feed), day 13, per tank
  Mortalities by Day: 0
1X (0.84 mg/g Nisin in feed), day 14, per tank
  Mortalities by Day: 0
1X (0.84 mg/g Nisin in feed), day 15, per tank
  Mortalities by Day: 0
1X (0.84 mg/g Nisin in feed), day 16, per tank
  Mortalities by Day: 0
1X (0.84 mg/g Nisin in feed), overall
  Group Survival: 93%
1X (0.84 mg/g Nisin in feed)
  % Survival: 95% and 90%
  Survivors: 19 and 18
10X (8.4 mg/g Nisin in feed), day 0, per tank
  Mortalities by Day: 0
10X (8.4 mg/g Nisin in feed), day 1, per tank
  Mortalities by Day: 0
10X (8.4 mg/g Nisin in feed), day 2, per tank
  Mortalities by Day: 0
10X (8.4 mg/g Nisin in feed), day 3, per tank
  Mortalities by Day: 0
10X (8.4 mg/g Nisin in feed), day 4, per tank
  Mortalities by Day: 0
10X (8.4 mg/g Nisin in feed), day 5, per tank
  Mortalities by Day: 0
10X (8.4 mg/g Nisin in feed), day 6, per tank
  Mortalities by Day: 0
10X (8.4 mg/g Nisin in feed), day 7, per tank
  Mortalities by Day: 0
10X (8.4 mg/g Nisin in feed), day 13, per tank
  Mortalities by Day: 0
10X (8.4 mg/g Nisin in feed), day 14, per tank
  Mortalities by Day: 0
10X (8.4 mg/g Nisin in feed), day 15, per tank
  Mortalities by Day: 0
10X (8.4 mg/g Nisin in feed), day 16, per tank
  Mortalities by Day: 0
10X (8.4 mg/g Nisin in feed)
  % Survival: 85% and 75% and 45%
  Survivors: 17 and 15 and 9
  Group Survival: 68%
100X (84 mg/g Nisin in feed), day 0, per tank
  Mortalities by Day: 0
100X (84 mg/g Nisin in feed), day 1, per tank
  Mortalities by Day: 0
100X (84 mg/g Nisin in feed), day 2, per tank
  Mortalities by Day: 0
100X (84 mg/g Nisin in feed), day 3, per tank
  Mortalities by Day: 0
100X (84 mg/g Nisin in feed), day 4, per tank
  Mortalities by Day: 0
100X (84 mg/g Nisin in feed), day 5, per tank
  Mortalities by Day: 0
100X (84 mg/g Nisin in feed), day 6, per tank
  Mortalities by Day: 0
100X (84 mg/g Nisin in feed), day 7, per tank
  Mortalities by Day: 0
100X (84 mg/g Nisin in feed), day 8, per tank
  Mortalities by Day: 0
100X (84 mg/g Nisin in feed), day 9, per tank
  Mortalities by Day: 0
100X (84 mg/g Nisin in feed), day 10, per tank
  Mortalities by Day: 0
100X (84 mg/g Nisin in feed), day 11, per tank
  Mortalities by Day: 0
100X (84 mg/g Nisin in feed), day 12, per tank
  Mortalities by Day: 0
100X (84 mg/g Nisin in feed), day 13, per tank
  Mortalities by Day: 0
100X (84 mg/g Nisin in feed), day 14, per tank
  Mortalities by Day: 0
100X (84 mg/g Nisin in feed), day 15, per tank
  Mortalities by Day: 0
100X (84 mg/g Nisin in feed), day 16, per tank
  Mortalities by Day: 0
100X (84 mg/g Nisin in feed)
  % Survival: 100%
  Survivors: 20
  Group Survival: 100%
Nisin and shrimp feed, dose as low as 0.84 mg/g
  shrimp survival: significant increase in shrimp survival
